Results on one compound are retold here after ChEMBL document CHEMBL3232888, “Optimization of anti-virulence PqsR antagonists regarding aqueous solubility and biological properties resulting in new insights in structure-activity relationships” (Eur J Med Chem, 2014).

Data set [1] in a line: Aqueous solubility of the compound in 2% DMSO at pH 7.4 by HPLC analysis. It is filed as physicochemical. To be noted: aqueous medium with 2% DMSO.
In data set [2] the test system is Pseudomonas aeruginosa. The data set can be described thus: Agonist activity at Pseudomonas aeruginosa PqsR expressed in Escherichia coli DH5alpha assessed as induction of transcriptional activity at 5 uM by beta-galactosidase reporter gene assay relative to PQS. In general terms: Reporter assays use an easily measured gene product as a stand-in for the process of interest.

For data set [3], the system named is Pseudomonas aeruginosa. The data set can be described thus: Antagonist activity at Pseudomonas aeruginosa PqsR expressed in Escherichia coli DH5alpha assessed as inhibition of PQS-induced transcriptional activity at 50 nM by beta-galactosidase reporter gene assay relative to PQS.
Data set [4] has as its system Pseudomonas aeruginosa. The data set can be described thus: Antagonist activity at Pseudomonas aeruginosa PqsR expressed in Escherichia coli DH5alpha assessed as inhibition of PQS-induced transcriptional activity at 5 uM by beta-galactosidase reporter gene assay relative to PQS.
Data set [5] is described as follows: Antagonist activity at Pseudomonas aeruginosa PqsR expressed in Escherichia coli DH5alpha assessed as inhibition of PQS-induced transcriptional activity by beta-galactosidase reporter gene assay relative to PQS.
The subject of data set [6] is Pseudomonas aeruginosa. Description: Antivirulence activity in Pseudomonas aeruginosa PA14 assessed as reduction of extracellular level of PQS at 10 uM by UHPLC-MS/MS analysis relative to control. It is filed as functional. On the set-up: scale not given: the % may be the effect or the level left.
The subject of data set [7] is Pseudomonas aeruginosa. Description: Antivirulence activity in Pseudomonas aeruginosa PA14 assessed as reduction of extracellular level of pyocyanin at 10 uM relative to control. It is filed as functional. Further details: scale not given: the % may be the effect or the level left.
Data set [8] concerns Pseudomonas aeruginosa. Description: Growth inhibition of Pseudomonas aeruginosa. It is filed as organism-based. The note with it: in vivo.

Some results are limits rather than exact numbers.

One may read the solubility as the concentration that dissolves in the medium under given conditions. As a reminder, the inhibition is the drop in the measured response relative to a control, in per cent. In general, IC50 refers to the midpoint of a concentration-inhibition curve. In data set [1], `CCCCCCCc1cc(=O)c2cc(C(F)(F)F)ccc2[nH]1` showed a solubility of less than 5 µM. The Activity with Pseudomonas aeruginosa [2] is 0%; in the data set on Pseudomonas aeruginosa [6], 2.4%; with Pseudomonas aeruginosa [7], 27%; in the data set with Pseudomonas aeruginosa [8], “Non-toxic”. Also, the inhibition in the data set on Pseudomonas aeruginosa [3] was 54%; in the data set on Pseudomonas aeruginosa [4], 100%. Besides, the IC50 in data set [5] worked out at 54 nM.
